Measured values: patent US20100041103A1, “COMPOSITION AND METHOD FOR ENHANCING CELL GROWTH AND CELL FUSION” (DO-COOP TECHNOLOGIES LTD., priority 2007, published 2010)
Structures can show the parent of a compound that is named as a salt. Ends that are not written are not given here.

Assays:
[1] = Dissolving CD-Dau, Daunorubicine and t-boc (Example 9); assay type: physicochemical
Protocol: 5 different glass vials were prepared: • 1. 5 mg CD-Dau+1.2 ml Neowater™. • 2. 1.8 mg CD-Dau+600 μl acetone. • 3. 1.8 mg CD-Dau+150 μl acetone+450 μl Neowater™ (25% acetone). • 4. 1.8 mg CD-Dau+600 μl 10% *PEG (Polyethylene Glycol). • 5. 1.8 mg CD-Dau+600 μl acetone+600 μl Neowater™.
The samples were vortexed and spectrophotometer measurements were performed on vials #1, 4 and 5
The vials were left opened in order to evaporate the acetone (vials #2, 3, and 5).
2 mg Daunorubicine+1 ml Neowater™ was prepared in one vial and 2 mg of Daunorubicine+1 ml RO was prepared in a second vial.
1.14 ml of EtOH was added to one glass vial containing 18.5 mg of t-boc (an oily material). This was then divided into two vials and 1.74 ml Neowater™ or RO water was added to the vials such that the solution comprised 25% EtOH. Following spectrophotometer measurements, the solvent was evaporated from the solution and Neowater™ was added to both vials to a final volume of 2.31 ml in each vial. The solutions in the two vials were merged to one clean vial and packaged for shipment under vacuum conditions.

[2] = cited from earlier work
[3] = Dissolving retinol in Neowater, absorbance and filtration (Example 12); assay type: physicochemical
Protocol: Retinol (vitamin A) was purchased from Sigma (Fluka, 99% HPLC). Retinol was solubilized in Neowater™ under the following conditions.
1% retinol (0.01 gr in 1 ml) in EtOH and Neowater™
0.5% retinol (0.005 gr in 1 ml) in EtOH and Neowater™
0.5% retinol (0.125 gr in 25 ml) in EtOH and Neowater™.
0.25% retinol (0.0625 gr in 25 ml) in EtOH and Neowater™. Final EtOH concentration: 1.5%
Absorbance spectrum of retinol in EtOM: Retinol solutions were made in absolute EtOH, with different retinol concentrations, in order to create a calibration graph; absorbance spectrum was detected in a spectrophotometer.
2 solutions with 0.25% and 0.5% retinol in Neowater with unknown concentration of EtOH were detected in a spectrophotometer. Actual concentration of retinol is also unknown since some oil drops are not dissolved in the water.
Filtration: 2 solutions of 0.25% retinol in Neowater™ were prepared, with a final EtOH concentration of 1.5%.The solutions were filtrated in […] filter.

[4] = Solubilization of taxol in DMSO or Neowater with 17% EtOH (Example 15); assay type: physicochemical; settings: 0.5 mM; Neowater with 17% EtOH
Protocol: Solubilization: 0.5 mM Taxol solution was prepared (0.0017 gr in 4 ml) in either DMSO or Neowater™ with 17% EtOH. Absorbance was detected with a spectrophotometer.

293T cells = assay: Cell viability assay, trypan blue count after taxol; assay type: cell-based; settings: taxol dissolved in Neowater, 1.666 μM, 24 hour treatment
Protocol: Cell viability assay: 150,000 293T cells were seeded in a 6 well plate with 3 ml of DMEM medium. Each treatment was grown in DMEM medium based on RO or Neowater™. […] The cells were harvested following a 24 hour treatment with taxol and counted using trypan blue solution to detect dead cells.

[5] = Taxol in Neowater by slow solvent exchange, spectrophotometry and HPLC after storage (Example 18); assay type: physicochemical; settings: taxol dispersed in Neowater, 6 month storage at −20° C., HPLC
Protocol: Solubilization: 0.5 mM Taxol solution was prepared (0.0017 gr in 4 ml). Taxol was dissolved in ethanol and exchanged to Neowater™ using an RT slow solvent exchange procedure which extended for 20 days. […] The solution was sterilized using a 0.2 μm filter. Taxol was separately prepared in DMSO (0.5 mM). Both solutions were kept at −20° C. Absorbance was detected with a spectrophotometer.

[6] = Solubilization of peptides in Neowater (Example 11); assay type: physicochemical; settings: at 0.5 mM
Excerpt: Spectrophotometric measurements were taken.

COc1cccc2c1C(=O)c1c(O)c3c(c(O)c1C2=O)C[C@@](O)(C(C)=O)C[C@@H]3O[C@H]1C[C@H](N)[C@H](O)[C@H](C)O1 [Daunorubicine, Cerubidine hydrochloride]
dissolving in Neowater and RO ([1]; 2 mg in 1 ml): dissolves without difficulty | solubility in water (known) [2]: known not to dissolve in water

CC1=C(/C=C/C(C)=C/C=C/C(C)=C/CO)C(C)(C)CCC1 [Retinol]
retinol in the solutions following filtration ([3]; 0.25% retinol in Neowater, 1.5% EtOH, filtered (0.44 and 0.2 filter)): less than 0.03125% | retinol concentration in EtOH with similar absorbance pattern ([3]; nominal 0.25% retinol in Neowater): ~0.03125% | retinol concentration in EtOH with similar absorbance pattern ([3]; nominal 0.5% retinol in Neowater): ~0.125%

CC(=O)O[C@H]1C(=O)[C@@]2(C)[C@H]([C@H](OC(=O)c3ccccc3)[C@]3(O)C[C@H](OC(=O)[C@H](O)[C@@H](NC(=O)c4ccccc4)c4ccccc4)C(C)=C1C3(C)C)[C@]1(OC(C)=O)CO[C@@H]1C[C@@H]2O [Taxol, Paclitaxel]
dissolving in DMSO and Neowater [4]: dissolved both in DMSO and Neowater™ | cytotoxic effect (293T cells): comprised a cytotoxic effect | structural changes of the formulation on storage [5]: no structural changes

Daidzein—daunomycin conjugate [CD-Dau]
dissolving, Vial #3 (25% acetone) ([1]; 1.8 mg + 150 μl acetone + 450 μl Neowater): didn't dissolve very well | dissolving, Vial #4 (10% PEG+Neowater) ([1]; 1.8 mg + 600 μl 10% PEG): dissolved better than the CD-Dau in vial #1 | dissolving, Vial #2 (100% acetone) ([1]; 1.8 mg + 600 μl acetone): suspended inside the acetone | dissolving, Vial #5 (acetone exchanged for Neowater) ([1]; 1.8 mg + 600 μl acetone + 600 μl Neowater, as the acetone evaporated): partially sediment to the bottom of the vial | dissolving, Vial #1 (100% Neowater) ([1]; 5 mg + 1.2 ml Neowater): sedimented after a few hours | solubility in water (known) [2]: known not to dissolve in water

PFPSYKLRPG-NH2
dissolving in Neowater [6]: dissolved
